Laboratory results published in the supplement of paper PMC8882468.

Assays:
Assay in all cases: CTG-3D luminescence at 96 h relative to day-0 seeding control (ratio to day 0); higher = more growth / less cytotoxicity; PDxO 3D drug screen (set 2), 96 h, CTG-3D normalised to day-0 seeding control.
HCI-025 = tested on: HCI-025 (organoid from a breast cancer xenograft)
HCI-024 = tested on: HCI-024 (organoid from a breast cancer xenograft)
HCI-002 = tested on: HCI-002 (organoid from a triple-negative breast cancer xenograft)
HCI-015 = tested on: HCI-015 (organoid from a triple-negative breast cancer xenograft)
HCI-001 = tested on: HCI-001 (organoid from a triple-negative breast cancer xenograft)
HCI-011.E2 = tested on: HCI-011.E2 (organoid from an ER-positive breast cancer xenograft)

CCOc1ccn(-c2ccc(F)cc2)c(=O)c1C(=O)Nc1ccc(Oc2ccnc(N)c2Cl)c(F)c1 [ASLAN002]
CTG-3D luminescence at 96 h
Settings	12.5 pM	0.00025 µM	0.005 µM	0.1 µM	1 µM	10 µM	100 µM	625 fM
HCI-001, days in culture: 365	2.86	2.78	2.5	3.1	2.44	1.84	1.6	1.69
HCI-001, days in culture: 397	1.79	2.1	2.38	1.93	2.27	2.43	1.01	1.87
HCI-001, days in culture: 401	1.59	1.66	1.76	1.83	1.66	1.29	0.84	1.76
HCI-002, days in culture: 127	2.57	3.09	2.93	3.28	2.8	2.96	1.67	2.9
HCI-002, days in culture: 155	4.58	5.63	6.16	6.6	5.32	3.84	1.94	4.85
HCI-002, days in culture: 168	3.23	3.24	4.54	3.38	4.12	2.92	0.58	3.92
HCI-011.E2, days in culture: 74	2.83	2.42	2.58	2.8	2.58	2.52	1.66	2.28
HCI-015, days in culture: 333	1.68	1.64	0.866	1.08	0.841	0.711	0.501	1.57
HCI-015, days in culture: 355	1.87	3.41	1.5	1.76	1.71	2.18	0.883	2.05
HCI-015, days in culture: 369	2.27	1.62	2.12	1.97	2.23	1.38	1.18	1.94
HCI-024, days in culture: 202	1.14	1.03	1.19	1.27	0.701	1.41	0.658	1.61
HCI-024, days in culture: 231	0.919	1.2	1.13	1.05	1.25	1.02	0.471	1.06
HCI-024, days in culture: 254	2.48	0.889	0.968	1.46	1.85	1.96	1	2.45
HCI-025, days in culture: 175	1.55	1.97	1.91	2.81	2.73	2.56	1.7	1.46
HCI-025, days in culture: 189	2.49	2.61	1.96	2.27	2.6	1.72	0.561	2.72
HCI-025, days in culture: 212	1.41	1.8	3.86	1.18	0.524	1.75	0.694	1.16
HCI-025, days in culture: 224	2.08	0.982	2.02	1.32	1.95	1.87	1.18	1.86

HCI-011.E2
Settings	CTG-3D luminescence at 96 h
12.5 pM	1.61
0.00025 µM	1.78
0.005 µM	1.28
0.1 µM	1.76
1 µM	1.41
10 µM	2.11
100 µM	1.39
625 fM	2.23

CO[C@H]1C[C@@H]2CC[C@@H](C)[C@@](O)(O2)C(=O)C(=O)N2CCCC[C@H]2C(=O)O[C@H]([C@H](C)C[C@@H]2CC[C@@H](OCCO)[C@H](OC)C2)CC(=O)[C@H](C)/C=C(\C)[C@@H](O)[C@@H](OC)C(=O)[C@H](C)C[C@H](C)/C=C/C=C/C=C/1C [everolimus]
CTG-3D luminescence at 96 h
Settings	12.5 pM	0.00025 µM	0.005 µM	0.1 µM	1 µM	10 µM	100 µM	625 fM
HCI-001, days in culture: 365	1.99	1.3	1.52	1.53	1.65	1.34	0.0033	1.24
HCI-001, days in culture: 397	1.23	1.76	1.92	1.59	1.16	1.33	-0.000266	0.913
HCI-001, days in culture: 401	1.21	1.26	1.27	1.07	1.1	1.27	-0.00223	1.41
HCI-002, days in culture: 127	1.87	2.27	2.16	2.43	2.17	2.2	-0.00603	2.25
HCI-002, days in culture: 155	3.94	3.58	4.06	4.09	2.96	2.78	-0.00382	3.53
HCI-002, days in culture: 168	3.61	3.15	3.32	2.37	2.67	2.73	-0.000729	3.88
HCI-011.E2, days in culture: 74	2.42	2.16	1.14	0.719	0.223	0.141	-0.0134	2.48
HCI-015, days in culture: 333	1.5	1.05	0.891	0.744	0.932	0.782	0.00101	1.51
HCI-015, days in culture: 355	2.02	1.85	1.47	1.79	0.526	0.358	-0.00285	1.7
HCI-015, days in culture: 369	1.97	1.19	1.91	1.52	1.84	1.12	-0.00186	1.61
HCI-024, days in culture: 202	0.906	1.18	0.737	1.7	1.12	1.74	0.00395	1.12
HCI-024, days in culture: 231	0.783	1.17	0.961	1.01	0.971	1.11	0.000185	0.943
HCI-024, days in culture: 254	2.18	0.836	1.02	1.31	1.11	1.02	0.00153	2.4
HCI-025, days in culture: 175	1.08	0.994	0.949	1.13	1.44	1.35	0.00118	1.41
HCI-025, days in culture: 189	1.44	1.22	1.34	1.21	0.974	0.917	0.000135	2.02
HCI-025, days in culture: 212	1.18	2.27	2.08	0.487	0.322	0.167	-0.000795	1.43
HCI-025, days in culture: 224	1.8	2.05	1.58	0.608	0.581	0.366	-0.00196	1.74

HCI-011.E2
Settings	CTG-3D luminescence at 96 h
12.5 pM	0.746
0.00025 µM	0.907
0.005 µM	0.684
0.1 µM	0.675
1 µM	0.247
10 µM	0.327
100 µM	-4.7e-05
625 fM	1.14

CO[C@H]1C[C@@H]2CC[C@@H](C)[C@@](O)(O2)C(=O)C(=O)N2CCCC[C@H]2C(=O)O[C@H]([C@H](C)C[C@@H]2CC[C@@H](O)[C@H](OC)C2)CC(=O)[C@H](C)/C=C(\C)[C@@H](O)[C@@H](OC)C(=O)[C@H](C)C[C@H](C)/C=C/C=C/C=C/1C [rapamycin]
CTG-3D luminescence at 96 h
Settings	12.5 pM	0.00025 µM	0.005 µM	0.1 µM	1 µM	10 µM	100 µM	625 fM
HCI-001, days in culture: 365	2.01	1.51	1.8	1.8	1.28	1.67	0.0179	1.4
HCI-001, days in culture: 397	1.46	1.71	1.53	1.84	1.22	1.87	0.017	1.1
HCI-001, days in culture: 401	1.07	1.45	1.1	1.26	0.98	1.23	0.00642	0.961
HCI-002, days in culture: 127	1.89	1.99	1.94	2.24	1.85	2.01	0.0264	2.17
HCI-002, days in culture: 155	3.33	3.32	3.3	3.82	2.76	2.89	0.0206	3.05
HCI-002, days in culture: 168	2.98	2.48	2.66	2.27	2.64	2.56	0.0148	3.57
HCI-011.E2, days in culture: 74	2.21	1.44	1.16	0.949	0.784	0.995	0.0116	2.1
HCI-015, days in culture: 333	1.29	0.897	0.593	1.1	0.612	0.447	0.0119	1.04
HCI-015, days in culture: 355	1.27	2.02	0.979	1.55	1.15	1.05	0.0149	1.06
HCI-015, days in culture: 369	1.79	1.03	1.2	1.39	1.48	0.955	0.00715	1.62
HCI-024, days in culture: 202	1.07	1.14	0.789	1.11	0.752	1.36	0.00983	1.53
HCI-024, days in culture: 231	1.39	1.11	1.27	0.84	0.989	0.927	0.00464	1.06
HCI-024, days in culture: 254	1.73	0.635	1.21	0.879	0.958	1.05	0.00976	3.42
HCI-025, days in culture: 175	1.08	1.22	1.44	1.39	1.87	1.67	0.0257	0.977
HCI-025, days in culture: 189	1.35	1.19	1.11	0.862	0.888	0.979	0.0056	1.27
HCI-025, days in culture: 212	2.1	0.842	1.53	1.27	0.387	1.15	0.0154	1.5
HCI-025, days in culture: 224	1.83	1.19	0.969	0.734	1.53	1.31	0.00743	1.36

HCI-011.E2
Settings	CTG-3D luminescence at 96 h
12.5 pM	0.71
0.00025 µM	0.7694
0.005 µM	0.724
0.1 µM	0.909
1 µM	0.688
10 µM	1.05
100 µM	0.0136
625 fM	1.05
